Laboratory results published in patent US20210323950A1, “HERBICIDALLY ACTIVE BICYCLIC BENZOYLPYRAZOLES” (Bayer Aktiengesellschaft, priority 2018, published 2021).

Columns and labels:
Assay type in all cases: in vivo
[1] = test system: Echinochloa crus-galli (ECHCG); assay: Pre-emergence herbicidal action against ECHCG; conditions: 80 g/ha, scored visually after about 3 weeks vs untreated controls
Text: (§1) ECHCG: Echinochloa crus-galli 1. Pre-Emergence Herbicidal Action and Crop Plant Compatibility Seeds of monocotyledonous and dicotyledonous weed plants and crop plants are placed in plastic or organic planting pots and covered with soil. The compounds of the invention, formulated in the form of wettable powders (WP) or as emulsion concentrates (EC), are then applied onto the surface of the covering soil as aqueous suspension or emulsion with addition of 0.5% additive at a water application rate of […] (converted). After the treatment, the pots are placed in a greenhouse and kept under good growth conditions for the trial plants. After about 3 weeks, the effect of the preparations is scored visually in comparison with untreated controls as percentages. The tables below show the herbicidal activity of numerous compounds according to the invention against important harmful plants. For example, 100% activity=the plants have died, 0% activity=like control plants.

Setaria viridis (SETVI) [2] = assay: Pre-emergence herbicidal action against SETVI; conditions: 80 g/ha, scored visually after about 3 weeks vs untreated controls
Text: as §1, with “SETVI: Setaria viridis” for “ECHCG: Echinochloa crus-galli”

[3] = test system: Abutilon theophrasti (ABUTH); assay: Pre-emergence herbicidal action against ABUTH; conditions: 80 g/ha, scored visually after about 3 weeks vs untreated controls
Text: as §1, with “ABUTH: Abutilon theophrasti” for “ECHCG: Echinochloa crus-galli”

[4] = test system: Amaranthus retroflexus (AMARE); assay: Pre-emergence herbicidal action against AMARE; conditions: 80 g/ha, scored visually after about 3 weeks vs untreated controls
Text: as §1, with “AMARE: Amaranthus retroflexus” for “ECHCG: Echinochloa crus-galli”

Stellaria media (STEME) [5] = assay: Pre-emergence herbicidal action against STEME; conditions: 80 g/ha, scored visually after about 3 weeks vs untreated controls
Text: as §1, with “STEME: Stellaria media” for “ECHCG: Echinochloa crus-galli”

Viola tricolor (VIOTR) [6] = assay: Pre-emergence herbicidal action against VIOTR; conditions: 80 g/ha, scored visually after about 3 weeks vs untreated controls
Text: as §1, with “VIOTR: Viola tricolor” for “ECHCG: Echinochloa crus-galli”

[7] = test system: Echinochloa crus-galli (ECHCG); assay: Post-emergence herbicidal action against ECHCG; conditions: 20 g/ha, post-emergence at one-leaf stage, rated visually after about 3 weeks vs untreated controls
Protocol: (§2) ECHCG: Echinochloa crus-galli 2. Post-Emergence Herbicidal Action and Crop Plant Compatibility Seeds of monocotyledonous and dicotyledonous weeds and crop plants are placed in sandy loam in plastic or organic planting pots, covered with soil and cultivated in a greenhouse under controlled growth conditions. 2 to 3 weeks after sowing, the test plants are treated at the one-leaf stage. The compounds of the invention, formulated in the form of wettable powders (WP) or as emulsion concentrates (EC), are then sprayed onto the green parts of the plants as aqueous suspension or emulsion with addition of 0.5% additive at a water application rate of […] (converted). After the test plants had been kept in the greenhouse under optimum growth conditions for about 3 weeks, the activity of the preparations is rated visually in comparison to untreated controls. The tables below show the herbicidal activity of numerous compounds according to the invention against important harmful plants. For example, 100% activity=the plants have died, 0% activity=like control plants.

Setaria viridis (SETVI) [8] = assay: Post-emergence herbicidal action against SETVI; conditions: 20 g/ha, post-emergence at one-leaf stage, rated visually after about 3 weeks vs untreated controls
Protocol: as §2, with “SETVI: Setaria viridis” for “ECHCG: Echinochloa crus-galli”

[9] = test system: Abutilon theophrasti (ABUTH); assay: Post-emergence herbicidal action against ABUTH; conditions: 20 g/ha, post-emergence at one-leaf stage, rated visually after about 3 weeks vs untreated controls
Protocol: as §2, with “ABUTH: Abutilon theophrasti” for “ECHCG: Echinochloa crus-galli”

Veronica persica (VERPE) = assay: Pre-emergence herbicidal action against VERPE; conditions: 80 g/ha, scored visually after about 3 weeks vs untreated controls
Text: as §1, with “VERPE: Veronica persica” for “ECHCG: Echinochloa crus-galli”

Stellaria media (STEME) [10] = assay: Post-emergence herbicidal action against STEME; conditions: 20 g/ha, post-emergence at one-leaf stage, rated visually after about 3 weeks vs untreated controls
Protocol: as §2, with “STEME: Stellaria media” for “ECHCG: Echinochloa crus-galli”

[11] = test system: Amaranthus retroflexus (AMARE); assay: Post-emergence herbicidal action against AMARE; conditions: 20 g/ha, post-emergence at one-leaf stage, rated visually after about 3 weeks vs untreated controls
Protocol: as §2, with “AMARE: Amaranthus retroflexus” for “ECHCG: Echinochloa crus-galli”

Viola tricolor (VIOTR) [12] = assay: Post-emergence herbicidal action against VIOTR; conditions: 20 g/ha, post-emergence at one-leaf stage, rated visually after about 3 weeks vs untreated controls
Protocol: as §2, with “VIOTR: Viola tricolor” for “ECHCG: Echinochloa crus-galli”

Compound | Pre-emergence action against ECHCG [1] [%] | Pre-emergence action against SETVI (Setaria viridis (SETVI) [2]) [%] | Pre-emergence action against ABUTH [3] [%] | Pre-emergence action against AMARE [4] [%] | Pre-emergence action against STEME (Stellaria media (STEME) [5]) [%] | Pre-emergence action against VIOTR (Viola tricolor (VIOTR) [6]) [%] | Post-emergence action against ECHCG [7] [%] | Post-emergence action against SETVI (Setaria viridis (SETVI) [8]) [%] | Post-emergence action against ABUTH [9] [%] | Pre-emergence action against VERPE (Veronica persica (VERPE)) [%] | Post-emergence action against STEME (Stellaria media (STEME) [10]) [%] | Post-emergence action against AMARE [11] [%] | Post-emergence action against VIOTR (Viola tricolor (VIOTR) [12]) [%]
CCn1ncc(C(=O)c2ccc(C(F)(F)F)c3c2OCCS3)c1O [Example 1-20] | 100 | 100 | 100 | 100 | 100 | 100 | 80 | 80 | 80 | – | – | – | –
Cc1nn(C)c(O)c1C(=O)c1ccc(C(F)(F)F)c2c1OCCS2 [Example 1-25] | 90 | 100 | 100 | 100 | 90 | 100 | 90 | – | – | 80 | 100 | – | –
CCn1ncc(C(=O)c2ccc(C(F)(F)F)c3c2SCS3)c1O [Example 1-63] | – | – | – | 100 | 90 | 100 | 80 | – | 80 | – | 80 | 100 | –
Cn1nc(C2CC2)c(C(=O)c2ccc(C(F)(F)F)c3c2OCCS3(=O)=O)c1O [Example 1-119] | 80 | – | 100 | 100 | 100 | 100 | – | – | 90 | 90 | 100 | 100 | –
Cn1nc(CCC(F)(F)F)c(C(=O)c2ccc(C(F)(F)F)c3c2OCS3)c1O [Example 1-127] | – | – | – | – | – | – | – | – | – | – | – | – | 80
